Values quoted from earlier work, collected in patent US20080260691A1 (priority 2004, published 2008).

Tests used:
[1] = in vivo
[2] = not given; remark: listed apart in the source
[3] = all animal species exposed

N[C@@H](CCC(=O)O)C(=O)O [Glu]
in vitro hydrolysis t½ rat hepatic microsomes: 30 min

NCCCC[C@H](N)C(=O)O [Lys]
in vitro hydrolysis t½ rat hepatic microsomes: 14 min

N[C@@H](Cc1ccccc1)C(=O)O [Phe]
in vitro hydrolysis t½ rat hepatic microsomes: 30 min

N[C@@H](Cc1ccc(O)cc1)C(=O)O [Tyr]
in vitro hydrolysis t½ rat hepatic microsomes: 5 min

Nc1nc2c(ncn2COCCO)c(=O)[nH]1 [acyclovir]
bioavailability [1]: 15-30%

NC(=O)c1ncn([C@@H]2O[C@H](CO)[C@@H](O)[C@H]2O)n1 [ribavirin]
total bioavailability, average ([2]; averages): 64%
multiple-dose half-life ([2]; multiple-dose): 12 days
portion of drug excreted in urine as intact drug or as metabolites ([2]; oral, within 72-80 hours): approx. 53%
bioavailability (low and variable) ([2]; range): 33-69%
portion of a single oral dose excreted in feces ([2]; single oral dose, within 72 hours): Approximately 15%
teratogenic and/or embryocidal effects [3]: Significant teratogenic and/or embryocidal effects

CC(C)[C@H](N)C(=O)OCCOCn1cnc2c(=O)[nH]c(N)nc21 [valacyclovir]
bioavailability [1]: 54%
